ChEMBL document CHEMBL1201862, “PubChem BioAssay data set” (2004)
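Five concentrations, 48 hours, 96-well plates. GI50: concentration for 50% inhibition of growth.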 The source made the active and inactive calls. Cut-off read from the data, not from the text of the source: active = GI50 up to about 1.1 µM and inactive = higher.

Key:
Test in all cases: NCI tumour cell line growth inhibition, 48 h
PC-3 = test system: PC-3
U-251 = test system: U-251
SN12C = test system: SN12C
A498 = test system: A498
RXF 393 = test system: RXF 393
NCI-H23 = test system: NCI-H23
SF-268 = test system: SF-268
DMS-273 = test system: DMS-273
MDA-MB-435 = test system: MDA-MB-435
NCI/ADR-RES = test system: NCI/ADR-RES
BT-549 = test system: BT-549
KM-20L2 = test system: KM-20L2
MDA-N = test system: MDA-N
HCC 2998 = test system: HCC 2998
NCI-H226 = test system: NCI-H226
UACC-62 = test system: UACC-62
ACHN = test system: ACHN
MCF7 = test system: MCF7
786-0 = test system: 786-0
HCT-15 = test system: HCT-15
SR = test system: SR
A549 = test system: A549
MOLT-4 = test system: MOLT-4
HCT-116 = test system: HCT-116
LXFL 529 = test system: LXFL 529
OVCAR-4 = test system: OVCAR-4
COLO 205 = test system: COLO 205
HOP-62 = test system: HOP-62
NCI-H460 = test system: NCI-H460
DLD-1 = test system: DLD-1
KM12 = test system: KM12
SNB-78 = test system: SNB-78
T47D = test system: T47D
M14 = test system: M14
SK-MEL-2 = test system: SK-MEL-2
SF-295 = test system: SF-295
Hs-578T = test system: Hs-578T
OVCAR-8 = test system: OVCAR-8
NCI-H522 = test system: NCI-H522
K562 = test system: K562
TK-10 = test system: TK-10
SK-MEL-5 = test system: SK-MEL-5
OVCAR-3 = test system: OVCAR-3
DU-145 = test system: DU-145
SK-MEL-28 = test system: SK-MEL-28
IGROV-1 = test system: IGROV-1
RXF 631 = test system: RXF 631
SNB-75 = test system: SNB-75
HOP-18 = test system: HOP-18
UACC-257 = test system: UACC-257
HT-29 = test system: HT-29
HOP-92 = test system: HOP-92
M19-MEL = test system: M19-MEL
Malme-3M = test system: Malme-3M
SF-539 = test system: SF-539
CAKI-1 = test system: CAKI-1
SNB-19 = test system: SNB-19
RPMI-8226 = test system: RPMI-8226
LOX IMVI = test system: LOX IMVI
UO-31 = test system: UO-31
MDA-MB-231 = test system: MDA-MB-231
CCRF-CEM = test system: CCRF-CEM
DMS-114 = test system: DMS-114
HL-60 = test system: HL-60
SW-620 = test system: SW-620
SK-OV-3 = test system: SK-OV-3
EKVX = test system: EKVX
OVCAR-5 = test system: OVCAR-5

For `Cc1nc2c(nc1C)C(=O)c1ccccc1C2=O`, the GI50 (PC-3) was 3.24 µM (inactive), the GI50 (U-251) was 6.55 µM (inactive) and the GI50 (SN12C) was 2.48 µM (inactive). The GI50 (A498) was 3.74 µM (inactive), the GI50 (RXF 393) was 15.4 µM (inactive) and the GI50 (NCI-H23) was 500 nM (active). The GI50 (SF-268) was 10.2 µM (inactive), the GI50 (DMS-273) was 3.41 µM (inactive) and the GI50 (MDA-MB-435) was 204 nM (active). The GI50 (NCI/ADR-RES) was 2.87 µM (inactive), the GI50 (BT-549) was 1.35 µM (inactive) and the GI50 (KM-20L2) was 17.7 µM (inactive). For the same compound, the GI50 (MDA-N) was 245 nM (active), the GI50 (HCC 2998) was 6.58 µM (inactive) and the GI50 (NCI-H226) was 4.9 µM (inactive). For the same compound, the GI50 (UACC-62) was 859 nM (active), the GI50 (ACHN) was 10.4 µM (inactive) and the GI50 (MCF7) was 1.36 µM (inactive). For the same compound, the GI50 (786-0) was 8.38 µM (inactive), the GI50 (HCT-15) was 2580 nM and the GI50 (SR) was 8.43 µM (inactive). The GI50 (A549) was 1.25 µM (inactive), the GI50 (MOLT-4) was 11.8 µM (inactive) and the GI50 (HCT-116) was 4.65 µM (inactive). The GI50 (LXFL 529) was 24.4 µM (inactive), the GI50 (OVCAR-4) was 5.36 µM (inactive) and the GI50 (COLO 205) was 2.78 µM (inactive). For the same compound, the GI50 (HOP-62) was 5.2 µM (inactive), the GI50 (NCI-H460) was 923 nM (active) and the GI50 (DLD-1) was 14.9 µM (inactive). For the same compound, the GI50 (KM12) was 5.69 µM (inactive), the GI50 (SNB-78) was 26.9 µM (inactive) and the GI50 (T47D) was 2.99 µM (inactive). The GI50 (M14) was 871 nM (active), the GI50 (SK-MEL-2) was 1.24 µM (inactive) and the GI50 (SF-295) was 1.48 µM (inactive). For the same compound, the GI50 (Hs-578T) was 2.14 µM (inactive), the GI50 (OVCAR-8) was 7.53 µM (inactive) and the GI50 (NCI-H522) was 3.54 µM (inactive). The GI50 (K562) was 7.67 µM (inactive), the GI50 (TK-10) was 20.6 µM (inactive) and the GI50 (SK-MEL-5) was 188 nM (active). For the same compound, the GI50 (OVCAR-3) was 2.68 µM (inactive), the GI50 (DU-145) was 1.36 µM (inactive) and the GI50 (SK-MEL-28) was 1.84 µM (inactive). The GI50 (IGROV-1) was 7.96 µM (inactive), the GI50 (RXF 631) was 11.9 µM (inactive) and the GI50 (SNB-75) was 2.64 µM (inactive). For the same compound, the GI50 (HOP-18) was 3.29 µM (inactive), the GI50 (UACC-257) was 1.32 µM (inactive) and the GI50 (HT-29) was 4.46 µM (inactive). The GI50 (HOP-92) was 18.1 µM (inactive), the GI50 (M19-MEL) was 258 nM (active) and the GI50 (Malme-3M) was 237 nM (active). For the same compound, the GI50 (SF-539) was 4.6 µM (inactive), the GI50 (CAKI-1) was 24.4 µM (inactive) and the GI50 (SNB-19) was 5.37 µM (inactive). The GI50 (RPMI-8226) was 11.1 µM (inactive), the GI50 (LOX IMVI) was 1.05 µM (active) and the GI50 (UO-31) was 11.7 µM (inactive). For the same compound, the GI50 (MDA-MB-231) was 7.55 µM (inactive), the GI50 (CCRF-CEM) was 8.55 µM (inactive) and the GI50 (DMS-114) was 9.64 µM (inactive). The GI50 (HL-60) was 3.98 µM (inactive), the GI50 (SW-620) was 2.98 µM (inactive) and the GI50 (SK-OV-3) was 34.5 µM (inactive). For the same compound, the GI50 (EKVX) was 15.4 µM (inactive) and the GI50 (OVCAR-5) was 4.97 µM (inactive).
